Laboratory results taken from PMC3961306, “Comparison of the Cancer Gene Targeting and Biochemical Selectivities of All Targeted Kinase Inhibitors Approved for Clinical Use” (PLoS ONE, 2014).

Assays:
Assay in all cases: Kinase profiling in a biochemical assay panel (mobility shift assays and ELISA), %-inhibition at 1 μM; selectivity entropy
[1] = target: T1, panel of more than 300 wild-type and mutant kinases (313 kinase panel) (Homo sapiens, UniProt O15146)
T1 sequence (O15146 24-869): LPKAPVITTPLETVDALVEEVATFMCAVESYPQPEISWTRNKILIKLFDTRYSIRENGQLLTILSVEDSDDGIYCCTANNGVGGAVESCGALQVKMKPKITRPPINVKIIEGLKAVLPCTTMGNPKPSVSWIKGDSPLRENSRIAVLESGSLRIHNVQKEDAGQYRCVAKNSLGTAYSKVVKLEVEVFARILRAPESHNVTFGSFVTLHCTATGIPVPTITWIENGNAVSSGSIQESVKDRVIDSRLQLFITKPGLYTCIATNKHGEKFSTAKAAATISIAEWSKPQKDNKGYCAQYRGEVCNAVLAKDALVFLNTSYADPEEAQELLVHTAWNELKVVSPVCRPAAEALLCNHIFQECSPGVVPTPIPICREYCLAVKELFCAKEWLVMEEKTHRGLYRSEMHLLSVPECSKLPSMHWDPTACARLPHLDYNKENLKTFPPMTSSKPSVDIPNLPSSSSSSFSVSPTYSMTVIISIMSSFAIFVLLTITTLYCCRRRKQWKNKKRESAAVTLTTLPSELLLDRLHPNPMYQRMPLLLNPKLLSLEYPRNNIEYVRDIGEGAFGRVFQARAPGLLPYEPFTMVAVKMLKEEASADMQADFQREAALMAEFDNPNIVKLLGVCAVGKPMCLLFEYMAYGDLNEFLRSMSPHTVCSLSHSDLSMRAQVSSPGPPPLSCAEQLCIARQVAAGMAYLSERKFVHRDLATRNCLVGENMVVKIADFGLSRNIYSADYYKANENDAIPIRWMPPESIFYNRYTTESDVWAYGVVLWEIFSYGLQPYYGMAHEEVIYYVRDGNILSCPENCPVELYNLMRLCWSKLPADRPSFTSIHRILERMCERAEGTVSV

[2] = target: panel of more than 300 wild-type and mutant kinases (313 kinase panel) (Homo sapiens, UniProt O75676)
[3] = target: panel of more than 300 wild-type and mutant kinases (313 kinase panel) (Homo sapiens, UniProt O95819)
[4] = target: panel of more than 300 wild-type and mutant kinases (313 kinase panel) (Homo sapiens, UniProt P07947)
[5] = target: panel of more than 300 wild-type and mutant kinases (313 kinase panel) (Homo sapiens, UniProt P08581)
[6] = target: panel of more than 300 wild-type and mutant kinases (313 kinase panel) (Homo sapiens, UniProt P10721, D816V)
[7] = target: panel of more than 300 wild-type and mutant kinases (313 kinase panel) (Homo sapiens, UniProt P10721, V654A)
[8] = target: panel of more than 300 wild-type and mutant kinases (313 kinase panel) (Homo sapiens, UniProt P29317)
[9] = target: panel of more than 300 wild-type and mutant kinases (313 kinase panel) (Homo sapiens, UniProt P43405)
[10] = target: panel of more than 300 wild-type and mutant kinases (313 kinase panel) (Homo sapiens, UniProt P49840)
[11] = target: panel of more than 300 wild-type and mutant kinases (313 kinase panel) (Homo sapiens, UniProt Q13882)
[12] = target: panel of more than 300 wild-type and mutant kinases (313 kinase panel) (Homo sapiens, UniProt Q8N4C8)
[13] = target: panel of more than 300 wild-type and mutant kinases (313 kinase panel) (Homo sapiens, UniProt Q9NYY3)
[14] = target: panel of more than 300 wild-type and mutant kinases (313 kinase panel) (Homo sapiens, UniProt Q9UK32)
[15] = kinase KIT(D816V), compound at 1 μM
[16] = kinase KIT(V654A), compound at 1 μM

Row | SMILES | %-inhibition of MUSK ([1]; kinase MUSK, 1 μM) [%] | %-inhibition of MSK2 ([2]; kinase MSK2, 1 μM) [%] | %-inhibition of HGK ([3]; kinase HGK, compound at 1 μM) [%] | %-inhibition of YES ([4]; kinase YES, compound at 1 μM) [%] | %-inhibition of MET ([5]; kinase MET, compound at 1 μM) [%] | %-inhibition of KIT(D816V) [6, 15] [%] | %-inhibition of KIT(V654A) [7, 16] [%] | %-inhibition of EPHA2 ([8]; kinase EPHA2, compound at 1 μM) [%] | %-inhibition of SYK ([9]; kinase SYK, 1 μM) [%] | %-inhibition of GSK3α ([10]; kinase GSK3α, compound at 1 μM) [%] | %-inhibition, BRK ([11]; kinase BRK, 1 μM compound) [%] | %-inhibition of MINK ([12]; kinase MINK, 1 μM) [%] | %-inhibition of PLK2 ([13]; kinase PLK2, 1 μM) [%] | %-inhibition of RSK4 ([14]; kinase RSK4, 1 μM) [%] | also measured
1 | CO[C@H]1C[C@@H]2CC[C@@H](C)[C@@](O)(O2)C(=O)C(=O)N2CCCC[C@H]2C(=O)O[C@H]([C@H](C)C[C@@H]2CC[C@@H](OCCO)[C@H](OC)C2)CC(=O)[C@H](C)/C=C(\C)[C@@H](O)[C@@H](OC)C(=O)[C@H](C)C[C@H](C)/C=C/C=C/C=C/1C [everolimus] | -7 | -7 | 0.896 | 0 | -4 | -4.44 | -3.52 | -4 | -2.55 | -14 | -4.32 | -7.49 | 1.38 | -8 | 
2 | CC(=O)Nc1cccc(-n2c(=O)n(C3CC3)c(=O)c3c(Nc4ccc(I)cc4F)n(C)c(=O)c(C)c32)c1 [trametinib] | -0.929 | -4.75 | -3.71 | -1.63 | -2.41 | -4 | -1.62 | -8.53 | -5 |  | -5.53 | -1.8 | -1.65 | 0.208 | %-inhibition of GSK3α ([10]; 1 µM): 1.59%
3 | O=S(=O)(c1cccc2cnccc12)N1CCCNCC1 [fasudil] | 2 | 15 | -1.82 | 1.18 | -4 | 4.75 | -4 | -7 | 6 | 0.911 | -6 | -1.41 | 7 | 16 | 
4 | N#CC[C@H](C1CCCC1)n1cc(-c2ncnc3[nH]ccc23)cn1 [ruxolitinib] | 56 |  | 1.09 |  |  | 36 | -10 | 28 |  | 9 | -4 |  | 10 | 3.16 | %-inhibition of MSK2 ([2]; 1 µM): 4.62%; %-inhibition of YES ([4]; 1 µM): 24%; %-inhibition of MET ([5]; 1 µM): -3.54%; %-inhibition of SYK ([9]; 1 µM): 20%; %-inhibition of MINK ([12]; 1 µM): -6%
5 | CC(C)(C)c1nc(-c2cccc(NS(=O)(=O)c3c(F)cccc3F)c2F)c(-c2ccnc(N)n2)s1 [dabrafenib] | 16 |  | 7 |  | 27 | 9 | -3.17 | 7 | 37 |  | 98 | -0.772 | -4.64 | 2.2 | 
6 | CCCS(=O)(=O)Nc1ccc(F)c(C(=O)c2c[nH]c3ncc(-c4ccc(Cl)cc4)cc23)c1F [vemurafenib] | -0.285 | -1 | 26 | 74 | 3.67 | 17 | -1.8 | 0.715 | -3.77 | 25 | 98 | 10 | -1.85 | -3 | 
7 | C#Cc1cccc(Nc2ncnc3cc(OCCOC)c(OCCOC)cc23)c1 [erlotinib] |  |  |  |  |  |  |  |  |  |  |  |  |  |  | %-inhibition of MUSK ([1]; 1 µM): 12%; %-inhibition of MSK2 ([2]; 1 µM): 5%; %-inhibition of HGK ([3]; 1 µM): 50%; %-inhibition of YES ([4]; 1 µM): 51%; %-inhibition of MET ([5]; 1 µM): 13%; %-inhibition of KIT(D816V) ([6]; 1 µM): 32%; %-inhibition of KIT(V654A) ([7]; 1 µM): 1.65%; %-inhibition of EPHA2 ([8]; 1 µM): 18%; %-inhibition of SYK ([9]; 1 µM): 17%; %-inhibition of GSK3α ([10]; 1 µM): -4%; %-inhibition, BRK ([11]; 1 µM): 47%; %-inhibition of MINK ([12]; 1 µM): 19%; %-inhibition of PLK2 ([13]; 1 µM): -3.59%; %-inhibition of RSK4 ([14]; 1 µM): 8%
